Each block holds one compound with its values, some of them ahead of it.
How the values were obtained:
[1] = Hydrodynamic size measurement by dynamic light scattering (Zetasizer); assay type: physicochemical; details: for Z average: DOPE, DMG-PEG 2000 and SEAP Replicon RNA; for Z average (size of strongest intensity): FIG. 4; for Z average (size of strongest intensity) / polydispersity index: compound 8 and SEAP RNA, hand mixing
Protocol: Additionally, with reference to FIG. 2, nanoparticles were formulated by mixing 21 μl of an ethanol phase containing compound 5 or compound 6, cholesterol, DOPE, and DMG PEG 2000 (PEG-lipid, Avanti Polar Lipids) at molar ratio of 1:2:1.5:0.0375 with 63 μl of SEAP Replicon RNA encoding secreted embryonic alkaline phosphatase (diluted with UltraPure, DNase/RNase-free, endotoxin-free distilled water (Invitrogen) and sterile 100 mM (pH 5) citrate buffer to a final citrate concentration of 10 mM. The resulting nanoparticles contained 4:1 mass ratio of compound 5 or compound 6 to RNA. Formulations were diluted 100-fold for analysis of particle size distribution, Z-average, and derived count rate using a Zetasizer Nano ZS (Malvern Panalytical).
The “Z average” of the nanoparticle composition containing compound 5 or compound 6, cholesterol, DOPE, DMG-PEG 2000 and SEAP Replicon RNA as function of size was determined by dynamic light scattering (DLS). […] Referring to FIG. 2, the size distributions were characterized with a low polydispersity index, indicating a relatively monodisperse size.
Reference to FIG. 4, nanoparticles were formulated by mixing 21 μl of an ethanol phase containing Compound 8, cholesterol, DOPE, and DMG PEG 2000 (PEG-lipid, Avanti Polar Lipids) at molar ratio of 1:2:1.5:0.0375 with 63 μl of Replicon RNA encoding secreted embryonic alkaline phosphatase (SEAP) diluted with UltraPure, DNase/RNase-free, endotoxin-free distilled water (Invitrogen) and sterile 100 mM (pH 5 or pH3) citrate buffer to a final citrate concentration of 10 mM. The derived NPs were characterized with a Zetasizer NanoZS machine (Malvern). The size distributions were characterized by a single peak with a low polydispersity index.
FIG. 4 illustrates distribution of the nanoparticle composition measured as the intensity (Z average) based on size (d.nm; diameter in nm) of the nanoparticles. Referring to FIG. 4, the “Z average” of the nanoparticle composition containing compound 8 and SEAP RNA as function of size was determined by dynamic light scattering (DLS). […] The polydispersity index of nanoparticles formulated with buffer pH 3 and pH 5 is 0.13 and 0.11, respectively, indicating a relatively monodisperse size.
(§1) Nanoparticles containing the compound 8:cholesterol:DOPE:DMG-PEG2k at molar ratios of 1:2:1.5:0.0375 were formulated using NanoAssemblr Benchtop (Precision NanoSystems Inc, Vancouver, BC, Canada)). RNA was diluted with Dnase/Rnase-Free, endotoxin free distilled water and sterile citrate buffer to a final desired pH. Total flow rate was maintained at 8 mL per min at a 3:1 ratio of aqueous to organic phase for formulating on the Benchtop. Using glassware depyrogenated by heating at 250° C. for 24 hours, nanoparticles were dialyzed against sterile, endotoxin-free PBS using 20,000 molecular weight cutoff dialysis. Dialyzed nanoparticles were sterile filtered using 0.2 micron poly(ether sulfone) filters and characterized with a Zetasizer NanoZS machine (Malvern). The size distributions were characterized by a single peak with a low polydispersity index. Encapsulation efficiency was measured to be 89% for the nanoparticle composition containing compound 8 and Replicon SEAP RNA (formulated at pH 5) using Ribogreen® assay.
The “Z average” of the nanoparticle composition containing compound 8, cholesterol, DOPE, DMG-PEG 2000 and SEAP Replicon RNA as function of size was determined by dynamic light scattering (DLS). […] Referring to Table 2, the size distributions were characterized with a low polydispersity index, indicating a relatively monodisperse size.
Nanoparticles containing the compound 8 or compound 9:cholesterol:DOPE DMG-PEG2k at molar ratios of 1:2:1.5:0.0375 were formulated using NanoAssemblr Benchtop (Precision NanoSystems Inc, Vancouver, BC, Canada)). RNA was diluted with Dnase/Rnase-Free, endotoxin free distilled water and sterile citrate buffer to a final desired pH. […]

[2] = Encapsulation efficiency by Ribogreen assay; assay type: physicochemical; details: formulated at pH 5
From the text: As used herein, “encapsulated” can refer to a nanoparticle that provides an active agent or therapeutic agent, such as a nucleic acid (e.g., a messenger RNA), with full encapsulation, partial encapsulation, or both. In a preferred embodiment, the nucleic acid is fully encapsulated in the nanoparticle. In the context of nucleic acid therapeutic agents, full encapsulation may be determined by a Ribogreen® assay. RiboGreen® is an ultra-sensitive fluorescent nucleic acid stain for quantitating oligonucleotides and single-stranded DNA or RNA in solution (available from Thermo Fisher Scientific—US).
Nanoparticles containing compound 3:DOPE:cholesterol:DMG-PEG2k at molar ratios of 1:0.25:0.9625:0.0375 and RNA at two different weight ratios were formulated using NanoAssemblr Benchtop (Precision NanoSystems Inc, Vancouver, BC, Canada)). RNA was diluted with DNase/RNase-Free, endotoxin free distilled water and sterile acetate buffer to a final desired pH. Total flow rate was maintained at 8 mL per min at a 3:1 ratio of aqueous to organic phase for formulating on the Benchtop. Using glassware depyrogenated by heating at 250° C. for 24 h, nanoparticles were dialyzed against sterile, endotoxin-free PBS using 20,000 molecular weight cutoff dialysis. Dialyzed nanoparticles were sterile filtered using 0.2 micron poly(ether sulfone) filters and characterized with a Zetasizer NanoZS machine (Malvern). The size distributions were characterized by a single peak with a low polydispersity index. Encapsulation efficiency was measured to be 95% for the nanoparticle composition containing compound 3 and SEAP mRNA or SEAP replicon RNA (formulated at pH 5) using Ribogreen® assay (Geall et al. 10.1073/pnas.1209367109 which is incorporated herein by reference as if fully set forth).
as §1
as §1, with “8 or compound 9:cholesterol:DOPE DMG-PEG2k” for “8:cholesterol:DOPE:DMG-PEG2k”, “7,000” for “20,000”, “81%” for “89%”, “Luciferase Ψ mRNA” for “Replicon SEAP RNA”, “assay. Encapsulation efficiency was measured to be 82% for the nanoparticle composition containing compound 9 and Luciferase Ψ mRNA (formulated at pH 5). […]” for “assay.”

[3] = Hydrodynamic size measurement by dynamic light scattering (Zetasizer); assay type: physicochemical; details: cholesterol
[4] = test system: SEAP expression; experiment: In vivo SEAP production in mouse serum (Phospha-Light assay); parameters: species or system mice
[5] = cholesterol:DSPC:DMG-PEG2k 50:38.5:10:1.5 nanoparticles with SEAP Ψ mRNA
[6] = FIG. 7, DSPC, DMG-PEG 2000 and SEAP Ψ mRNA
[7] = cholesterol:DOPE:DMG-PEG2k nanoparticles with Luciferase Ψ mRNA
[8] = Table 3, DOPE, DMG-PEG 2000 and Luciferase Ψ mRNA

Structure (SMILES): CCCCCCCCCCCCn1cc(COC(=O)CCN(CCCN(C)CCCNCCCO[C@H]2O[C@@H](COC(C)=O)[C@H](OC(C)=O)[C@@H](OC(C)=O)[C@@H]2OC(C)=O)CCC(=O)OCc2cn(CCCCCCCCCCCC)nn2)nn1 [Compound 6]
Z average ([1]; FIG. 2, hand mixing with cholesterol, pH 5 citrate, 4:1 mass ratio to RNA): 122.0 nm·days

Encapsulation efficiency [2, 5]: 84% | Z average [3, 6]: 74.8 nm·days
Structure (SMILES): CCCCCCCCCCCCOC(=O)CCCCCCC(=O)NCCCN(C)CCCN(CCC(=O)OCCCCCCCC)CCC(=O)OCCCCCCCC [Compound 18]

Encapsulation efficiency [2, 7]: 82% | Z average [3, 8]: 80.9 nm·days
Structure (SMILES): CCCCCCCCCCCCCCCCOC(=O)CCN(CCCCN(C)CCCNCCCO[C@@H]1O[C@H](COC(C)=O)[C@@H](OC(C)=O)[C@H](OC(C)=O)[C@H]1OC(C)=O)CCC(=O)OCCCCCCCCCCCCCCCC [Compound 9]

Encapsulation efficiency ([2]; nanoparticles compound 3:DOPE:cholesterol:DMG-PEG2k with SEAP mRNA or SEAP replicon RNA): 95%
Structure (SMILES): CCCCCCCCCCSSCCCCCCOC(=O)CCN(CCCCN(C)CCCNC(=O)CCCCCCC/C=C\C[C@@H](O)CCCCCC)CCC(=O)OCCCCCCSSCCCCCCCCCC [Compound 3]
SEAP protein production in vivo ([4]; FIG. 1, SEAP replicon RNA and SEAP mRNA formulated with compound 3): resulted in SEAP protein production | SEAP expression in mouse serum, 10:1 versus 15:1 compound 3:RNA ([4]; formulations with 10:1 compound 3:RNA, mice, 2 μg SEAP mRNA or SEAP replicon RNA, serum 16 hrs later): higher expression

Encapsulation efficiency [2, 5]: 89% | Z average [3, 6]: 129.5 nm·days
Structure (SMILES): CCCCCCCCCCCCOC(=O)CCSSCCC(=O)NCCCN(C)CCCN(CCC(=O)OCCCCCCCC)CCC(=O)OCCCCCCCC [Compound 13]
SEAP expression in mice serum, compound 13 compared to compound 18 ([4]; FIG. 8, BALB/c mice, approximately 2 μg, SEAP Ψ mRNA nanoparticles formulated at pH 5): better SEAP expression

Structure (SMILES): CCCCCCCCCCCCCCCCOC(=O)CCN(CCCCN(C)CCCNCCCOP(=O)(OCC)OCC)CCC(=O)OCCCCCCCCCCCCCCCC [Compound 8]
Z average (size of strongest intensity) ([1]; buffer pH 3): 133.7 nm·days | Z average (size of strongest intensity) ([1]; buffer pH 5): 191.3 nm·days | Z average ([1]; Table 2, compound 8, cholesterol, microfluidic mixing): 78.2 nm·days | polydispersity index ([1]; buffer pH 3): 0.13 | polydispersity index ([1]; buffer pH 5): 0.11 | Encapsulation efficiency [2, 7]: 81% | Encapsulation efficiency ([2]; compound 8:cholesterol:DOPE:DMG-PEG2k with Replicon SEAP RNA, microfluidic mixing): 89% | Z average [3, 8]: 76.5 nm·days

— patent US12491262B2, “Gene delivery agents” (TIBA Biotech LLC, priority 2023, dated 2025)
